# Reference: US20130261178A1, “PHENOXYPROPANOL DERIVATIVES AND THEIR USE IN TREATING CARDIAC AND CARDIOVASCULAR DISEASES” (priority 2010, published 2013)
# Structures can show the parent of a compound that is named as a salt.
# What was measured:
# beta1-adrenoceptor = beta1-adrenoceptor (Homo sapiens, UniProt P08588); test: 3H-CGP12177 whole-cell binding, CHO cells expressing human beta1-adrenoceptor; set-up: expressed in transfected cells; host or cells: CHO cells; details: 3H-CGP 12177 whole cell binding, mean ± s.e.mean; for Kd: log KD, read-out: Beta 1 Log KD (converted)
# Sequence of beta1-adrenoceptor (P08588 whole entry): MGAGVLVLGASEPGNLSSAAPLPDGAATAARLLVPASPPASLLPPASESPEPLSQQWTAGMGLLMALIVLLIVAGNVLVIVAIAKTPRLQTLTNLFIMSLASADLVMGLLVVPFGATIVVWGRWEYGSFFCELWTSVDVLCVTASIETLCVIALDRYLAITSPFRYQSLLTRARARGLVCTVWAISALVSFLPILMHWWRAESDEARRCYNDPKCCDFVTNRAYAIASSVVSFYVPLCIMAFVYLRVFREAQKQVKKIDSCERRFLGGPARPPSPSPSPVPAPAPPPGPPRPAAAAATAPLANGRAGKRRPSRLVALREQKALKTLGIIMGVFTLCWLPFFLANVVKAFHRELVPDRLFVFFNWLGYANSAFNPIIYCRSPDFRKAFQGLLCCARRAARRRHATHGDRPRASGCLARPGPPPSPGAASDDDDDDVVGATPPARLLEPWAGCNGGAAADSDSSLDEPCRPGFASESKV
# Text: (§1) The selectivity of a ligand is given by the ratio of beta-1 to beta-2 KD.
# human beta2-adrenoceptor = molecular target: T1, human beta2-adrenoceptor (Homo sapiens, UniProt P07550); test: 3H-CGP12177 whole-cell binding, CHO cells expressing human beta2-adrenoceptor; details: 3H-CGP 12177 whole cell binding, mean ± s.e.mean; for Kd: log KD, read-out: Beta 2 Log KD (converted)
# T1 construct: expressed in transfected cells; host or cells: CHO cells
# T1 sequence (P07550 whole entry): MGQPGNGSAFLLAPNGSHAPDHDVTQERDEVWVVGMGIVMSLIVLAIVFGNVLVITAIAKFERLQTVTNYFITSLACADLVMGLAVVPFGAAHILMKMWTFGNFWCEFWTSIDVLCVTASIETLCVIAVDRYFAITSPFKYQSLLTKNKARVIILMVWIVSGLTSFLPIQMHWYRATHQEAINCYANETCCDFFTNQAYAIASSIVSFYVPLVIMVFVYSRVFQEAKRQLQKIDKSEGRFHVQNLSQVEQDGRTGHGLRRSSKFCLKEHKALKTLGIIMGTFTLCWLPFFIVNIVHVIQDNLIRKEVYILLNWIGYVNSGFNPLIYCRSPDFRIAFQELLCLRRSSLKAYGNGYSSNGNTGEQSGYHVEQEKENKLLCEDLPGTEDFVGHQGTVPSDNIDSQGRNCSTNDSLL
# Text: as §1
SMILES,Kd (beta1-adrenoceptor),Kd (human beta2-adrenoceptor),Beta 2 Log KD (human beta2-adrenoceptor),Beta 1 Log KD (beta1-adrenoceptor)
CCOCCOc1ccc(OCC(O)CNCCNC(=O)Nc2ccc(OCc3ccccc3)cc2)cc1 (stereo not drawn) [45d],91.2 nM,–,–,–
"CC(C)OCCOc1ccc(OCC(O)CNCCNC(=O)Nc2cccc(Cl)c2)cc1 (stereo not drawn) [46k, 1-(2-(3-(4-(2-(Isopropyloxy)ethoxy)phenoxy)-2-hydroxypropylamino)ethyl)-3-(3-chlorophenyl)urea]",21.4 nM,5130 nM,–,–
"CC(C)OCCOc1ccc(OCC(O)CNCCNC(=O)Nc2ccc(O)cc2)cc1 (stereo not drawn) [46l, 1-(2-(3-(4-(2-(Isopropyloxy)ethoxy)phenoxy)-2-hydroxypropylamino)ethyl)-3-(4-hydroxyphenyl)urea]",58.9 nM,15500 nM,–,–
"CCCOCCOc1ccc(OCC(O)CNCCNC(=O)Nc2cccc(Cl)c2)cc1 (stereo not drawn) [46m, 1-(2-(3-(4-(2-(Propyloxy)ethoxy)phenoxy)-2-hydroxypropylamino)ethyl)-3-(3-chlorophenyl)urea]",16.2 nM,3720 nM,–,–
"CCCOCCOc1ccc(OCC(O)CNCCNC(=O)Nc2ccc(O)cc2)cc1 (stereo not drawn) [46n, 1-(2-(3-(4-(2-(Propyloxy)ethoxy)phenoxy)-2-hydroxypropylamino)ethyl)-3-(4-hydroxyphenyl)urea]",37.2 nM,13500 nM,–,–
"O=C(NCCNCC(O)COc1ccc(OCCOC2CC2)cc1)Nc1cccc(Cl)c1 (stereo not drawn) [46o, 1-(3-Chlorophenyl)-3-(2-(3-(4-(2-cyclopropoxyethoxy)phenoxy)-2-hydroxypropylamino)ethyl)urea]",13.8 nM,2950 nM,–,–
"O=C(NCCNCC(O)COc1ccc(OCCOC2CC2)cc1)Nc1ccc(O)cc1 (stereo not drawn) [46p, 1-(2-(3-(4-(2-Cyclopropoxyethoxy)phenoxy)-2-hydroxypropylamino)ethyl)-3-(4-hydroxyphenyl)urea]",63.1 nM,25700 nM,–,–
"O=C(NCCNCC(O)COc1ccc(OCCOC2CCCC2)cc1)Nc1cccc(C(=O)O)c1 (stereo not drawn) [47aa, 3-(3-(2-(3-(4-(2-(Cyclopentyloxy)ethoxy)phenoxy)-2-hydroxypropylamino)ethyl)ureido)benzoic acid hydrochloride]",77.6 nM,43650 ± 400 nM,–,–
"O=C(NCCNCC(O)COc1ccc(OCCOC2CCCC2)cc1)Nc1ccc(C(=O)O)cc1 (stereo not drawn) [47bb, 4-(3-(2-(3-(4-(2-(Cyclopentyloxy)ethoxy)phenoxy)-2-hydroxypropylamino)ethyl)ureido)benzoic acid hydrochloride]",105 nM,43700 ± 701 nM,–,–
"O=C(NCCNCC(O)COc1ccc(OCCOC2CCCC2)cc1)Nc1ccc([N+](=O)[O-])cc1 (stereo not drawn) [47w, 1-(2-(3-(4-(2-(Cyclopentyloxy)ethoxy)phenoxy)-2-hydroxypropylamino)ethyl)-3-(4-nitrophenyl)urea]",18.6 nM,1780 nM,–,–
"O=C(NCCNCC(O)COc1ccc(OCCOC2CCCC2)cc1)Nc1ccc(OCCF)cc1 (stereo not drawn) [47x, 1-(2-(3-(4-(2-(Cyclopentyloxy)ethoxy)phenoxy)-2-hydroxypropylamino)ethyl)-3-(4-(2-fluoroethoxy)phenyl)urea]",17.8 nM,1820 nM,–,–
"COC(=O)c1cccc(NC(=O)NCCNCC(O)COc2ccc(OCCOC3CCCC3)cc2)c1 (stereo not drawn) [47y, Methyl 3-(3-(2-(3-(4-(2-(cyclopentyloxy)ethoxy)phenoxy)-2-hydroxypropylamino)ethyl)ureido)benzoate]",12.3 nM,1100 nM,–,–
"COC(=O)c1ccc(NC(=O)NCCNCC(O)COc2ccc(OCCOC3CCCC3)cc2)cc1 (stereo not drawn) [47z, Methyl 4-(3-(2-(3-(4-(2-(cyclopentyloxy)ethoxy)phenoxy)-2-hydroxypropylamino)ethyl)ureido)benzoate]",43.7 nM,2040 nM,–,–
"COc1ccc(NC(=O)NCCNCC(O)COc2ccc(OCCOC3CCCC3)cc2)cc1Cl (stereo not drawn) [54b, 1-(3-Chloro-4-methoxyphenyl)-3-(2-(3-(4-(2-(cyclopentyloxy)ethoxy)phenoxy)-2-hydroxypropylamino)ethyl)urea]",19.5 nM,1510 nM,–,–
"O=C(NCCNCC(O)COc1ccc(OCCOC2CCCC2)cc1)Nc1ccc(O)c(Cl)c1 (stereo not drawn) [54c, 1-(3-Chloro-4-hydroxyphenyl)-3-(2-(3-(4-(2-(cyclopentyloxy)ethoxy)phenoxy)-2-hydroxypropylamino)ethyl)urea]",7.24 nM,1020 nM,–,–
"CC(=O)Oc1ccc(C(=O)NCCNCC(O)COc2ccc(OCCOC3CCCC3)cc2)cc1 (stereo not drawn) [62e, 4-(2-(3-(4-(2-(Cyclopentyloxy)ethoxy)phenoxy)-2-hydroxypropylamino)ethylcarbamoyl)phenyl acetate]",–,–,−6.27 ± 0.03,−8.42 ± 0.02
"CC(=O)Oc1ccc(CC(=O)NCCNCC(O)COc2ccc(OCCOC3CCCC3)cc2)cc1 (stereo not drawn) [62w, 4-(2-(2-(3-(4-(2-(Cyclopentyloxy)ethoxy)phenoxy)-2-hydroxypropylamino)ethylamino)-2-oxoethyl)phenyl acetate]",–,–,−6.59 ± 0.02,−8.09 ± 0.03
"O=C(NCCNC[C@@H](O)COc1ccc(OCCOC2CCCC2)cc1)Nc1cccc(Cl)c1 [(R)-47l, (R)-1-(2-(3-(4-(2-(Cyclopentyloxy)ethoxy)phenoxy)-2-hydroxypropylamino)ethyl)-3-(3-chlorophenyl)urea]",186 nM,5890 nM,–,–

# Second part, led by results:
Kd (beta1-adrenoceptor),Kd (human beta2-adrenoceptor),SMILES,Beta 2 Log KD (human beta2-adrenoceptor),Beta 1 Log KD (beta1-adrenoceptor)
75.9 nM,2190 nM,Nc1ccccc1NC(=O)NCCNCC(O)COc1ccc(OCCOC2CCCC2)cc1 (stereo not drawn) [60a],–,–
20 nM,4170 nM,Nc1cccc(NC(=O)NCCNCC(O)COc2ccc(OCCOC3CCCC3)cc2)c1 (stereo not drawn) [60b],–,–
29.5 nM,3630 nM,Nc1ccc(NC(=O)NCCNCC(O)COc2ccc(OCCOC3CCCC3)cc2)cc1 (stereo not drawn) [60c],–,–
4.9 nM,1410 nM,COc1cc(C(=O)NCCNCC(O)COc2ccc(OCCOC3CCCC3)cc2)ccc1O (stereo not drawn) [62f],–,–
26.9 nM,302 nM,Cc1cccc(CC(=O)NCCNCC(O)COc2ccc(OCCOC3CCCC3)cc2)c1 (stereo not drawn) [62q],–,–
9.77 nM,91.2 nM,COc1ccc(CC(=O)NCCNCC(O)COc2ccc(OCCOC3CCCC3)cc2)cc1 (stereo not drawn) [62t],–,–
19.1 nM,138 nM,O=C(Cc1ccccc1O)NCCNCC(O)COc1ccc(OCCOC2CCCC2)cc1 (stereo not drawn) [62u],–,–
74.1 nM,776 nM,OC(CNCCOc1cccc(Cl)c1)COc1ccc(OCCOC2CCCC2)cc1 (stereo not drawn) [65a],–,–
107 nM,741 nM,OC(CNCCOc1ccccc1-c1ccccc1)COc1ccc(OCCOC2CCCC2)cc1 (stereo not drawn) [65c],–,–
398 nM,79400 nM,OC(CNCCOc1ccc(-c2ccccc2)cc1)COc1ccc(OCCOC2CCCC2)cc1 (stereo not drawn) [65d],–,–
5.75 nM,204 nM,Oc1ccc(OCCNCC(O)COc2ccc(OCCOC3CCCC3)cc2)cc1 (stereo not drawn) [65e],–,–
34.7 nM,794 nM,Oc1ccc(OCCCNCC(O)COc2ccc(OCCOC3CCCC3)cc2)cc1 (stereo not drawn) [65f],–,–
49 nM,1050 nM,NC(=O)c1ccccc1OCCNCC(O)COc1ccc(OCCOC2CCCC2)cc1 (stereo not drawn) [67a],–,–
18.2 nM,1000 nM,NC(=O)c1cccc(OCCNCC(O)COc2ccc(OCCOC3CCCC3)cc2)c1 (stereo not drawn) [67b],–,–
3.31 nM,851 nM,NC(=O)c1ccc(OCCNCC(O)COc2ccc(OCCOC3CCCC3)cc2)cc1 (stereo not drawn) [67c],–,–
9.33 nM,1020 nM,OC(CNCCOc1ccc(F)cc1)COc1ccc(OCCOC2CCCC2)cc1 (stereo not drawn) [67d],–,–
8.91 nM,794 nM,COc1ccc(OCCNCC(O)COc2ccc(OCCOC3CCCC3)cc2)cc1 (stereo not drawn) [67e],–,–
